Here are results for one molecule from patent publication US10092548B2, “Pharmaceutical compositions for preventing or treating angiogenic diseases comprising inhibitors of NUP153 gene expression or NUP153 activity as active ingredient” (INDUSTRY-ACADEMIC COOPERATION FOUNDATION, YONSEI UNIVERSITY, priority 2013, dated 2018).

One data set relates to VEGF mRNA. Description: VEGF mRNA level in treated zebrafish embryos by RT-PCR. In kind it is in vivo. The settings on record: compared with DMSO-treated controls. As for the experimental part:
(§1) Zebrafish were maintained on 14 hours light/dark cycle at 28° C. All experiments involving zebrafish were performed according to the National Institute of Health guidelines. Embryos were collected and raised in Ringer's solution according to standard protocol (Westerfield, 1995). Zebrafish were injected in Ringer's solution at the one-cell stage with morpholino oligonucleotides (MO). MO was obtained from Gene Tools (Philomath, Oreg.) with the following sequence to block 5′ translation of NUP153: 5′-[…]-3′ (SEQ ID NO:2) and splicing of NUP153: 5′-[…]-3′ (SEQ ID NO:3), respectively. DMSO and OMe-Syn stock solution (10 mM in DMSO) were dissolved in ringer's solution to appropriate concentrations. […] Embryos were added to the solutions at one cell stage. Tricaine supplied in Ringer's solution (0.6%, w/v) was used to anesthetize the embryos for imaging. Microscopy images of zebrafish were taken with Fluoview FV1000, Olympus.
(§2) The present inventors previously reported that OMe-Syn, an anti-angiogenic small molecule, inhibited VEGF-induced angiogenesis in vitro and in vivo (Kim et al., Biochem. Biophys. Res. Commun 399, 20-23 (2010)). The anti-angiogenic activity of OMe-Syn was further investigated using fli1a:EGFP transgenic zebrafish, a well-established model organism for studying angiogenesis through visualization of blood vessel development.

Data set [1] relates to intersegmental vessel (ISV) angiogenesis of zebrafish embryos. Description: ISV angiogenesis in fli1a:EGFP transgenic zebrafish embryos. In kind it is in vivo. The conditions noted are these: 30 hpf. The protocol: as §1, §2
The present inventors further examined the function of NUP153 in vivo in intersegmental vessel (ISV) angiogenesis of zebrafish embryos using a morpholino oligonucleotide (MO) specific to NUP153. NUP153-specific MOs that block the splicing (n=31) or translation (n=28) of NUP153 were injected into fli1a:EGFP transgenic embryos at the one-cell stage. The blocking of NUP153 splicing was monitored by reverse transcription-polymerase chain reaction (RT-PCR) (FIG. 6A).

The target of data set [2] is T1, purified N-terminal partial domain of NUP153 (Homo sapiens, UniProt P49790).
T1 construct: a PCR-amplified N-terminus (amino acids 235-326) cDNA of NUP153 (NM_005124); inferred from the pET-28a vector and Ni-NTA purification; made in house; host or cells: Rosetta (DE3) E. coli
T1 sequence (P49790 235-326): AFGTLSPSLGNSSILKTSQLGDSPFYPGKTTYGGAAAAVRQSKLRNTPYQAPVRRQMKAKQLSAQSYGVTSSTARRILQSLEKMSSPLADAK
Description: Surface plasmon resonance (SPR) analysis, BIAcore 2000. In kind it is binding. From the text:
To obtain the recombinant NUP153 protein from bacteria, a PCR-amplified N-terminus (amino acids 235-326) cDNA of NUP153 (NM_005124) was into the EcoRI/SalI site of pET-28a expression vector (Novagen, Billerica, Mass.). Rosetta™ (DE3) E. coli strains were transformed with the plasmid and N-terminus partial domain of NUP153 protein was purified using Ni-NTA agarose bead (Quiagen, Hilden, Germany). Bead bound protein was eluted with elution buffer containing high concentration of imidazole according to the manufacturer's instructions.
Biotin and biotinylated OMe-Syn were sequentially immobilized on the surface of a streptavidin-coated sensor chip. Molecular interaction analysis was performed using the BIAcore 2000 (BIAcore AB) as described previously (Shim et al., Chem. Biol 11, 1455-1463 (2004)). The SPR response curves were analyzed with BIAcore Evaluations software, version 3.1. The apparent association and dissociation constants were calculated from the kinetic constants equations: KA=ka/kd, KD=kd/ka
To examine the binding affinity of OMe-Syn to NUP153, the N-terminal partial domain of NUP153, which corresponds to phage coding sequences (FIG. 2E), was cloned and expressed in Escherichia coli. The cloning and purification of recombinant NUP153 is described in the experimental procedures. […]

The test system of a further data set is NPC. Briefly: Preliminary investigation of NPC integrity under OMe-Syn treatment.
In the next data set the target is T2, NUP153-expressing phage (Homo sapiens, UniProt P49790).
T2 construct: host or cells: T7 phage clone isolated from human cDNA libraries (colon tumor, lung tumor, heart)
T2 sequence (P49790 245-326): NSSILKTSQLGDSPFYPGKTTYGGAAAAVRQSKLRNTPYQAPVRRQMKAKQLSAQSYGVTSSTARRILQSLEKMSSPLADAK
Description: Phage binding and phage competition assay.

Data set [3] has as its system vascular endothelial growth factor (VEGF)-induced angiogenesis. The settings on record: in vitro and in vivo; Kim et al., 2010; cited from earlier work.
Data set [4] has as its system retinal neovascularization. Briefly: Oxygen-induced retinopathy (OIR), counting vascular lumens. It is filed as in vivo, C57BL/6 mice. The settings on record: mice, 20 μM in 1 μL PBS intravitreously on P14, read at P17, compared to control group. An excerpt: OIR was induced as described by Smith et al. (Smith et al., Invest. Ophthalmol. Vis. Sci 35, 101-111 (1994)) with some modifications (Zhang et al., Diabetologia 44, 757-765 (2001)). Briefly, newborn mice were arbitrarily assigned to experimental and control groups. At postnatal day 7 (P7), pups (8-10 pups) in the experimental group were exposed to hyperoxia (75±0.5% 02) for 5 days (P7-P12) and then returned to normoxia (room air) for 6 days. Neovascularization occurs upon return to normoxia and peaks at P17. To assess the anti-angiogenic activity of OMe-Syn, the pups were injected intravitreously with 20 μM OMe-Syn in 1 μL PBS on P14, when maximum retinal neovascularization began.
At P17, the eyes were removed, fixed in 4% paraformaldehyde in 0.1 M phosphate buffer for 24 hours, and embedded in paraffin. Sagittal sections of 5 μm, each 30 μm apart, were cut through the cornea parallel to the optic nerve. The sections were stained with hematoxylin and eosin to assess retinal vasculature via light microscopy (Carl Zeiss, Chester, Va., USA). Any vascular lumens on the vitreal side of the inner limiting membrane were counted in at least 10 sections from each eye by two independent observers blind to treatment. The average intravitreal vessels/section was calculated for each group. There were at least six animals in each group.

As usually defined, the Kd is the free concentration of one partner at which half of the binding sites on the other are occupied at equilibrium, for simple one-to-one binding. A high value points to weaker binding. Turning to `CNC[C@H](OC)c1ccc(O)cc1` [OMe-Syn, R-(−)-β-O-Methylsynephrine], the “VEGF mRNA level” value in the data set with VEGF mRNA is “reduced”. In addition, the “viability / toxicity of embryos” value in data set [1] is listed as “without compromising the viability”. In data set [1] (OMe-Syn 2.5 and 5 μM, 5′-MO 8 ng, sp-MO 12 ng), the “number of complete intersegmental vessels (ISVs) and angiogenic sprouts” value is reported as “decreased number of complete intersegmental vessels (ISVs) in a dose-dependent manner”. Binding in data set [2] was put at a Kd of 2.4 nM. Also, in data set [2] (compound immobilized on sensor chip, purified NUP153 20 μM), the “SPR binding of purified NUP153 to immobilized compound” value is “specifically bound”. Besides, the “NPC integrity and NPC protein interactions” value with NPC is “leaves the NPC intact and does not disrupt NPC protein interactions”. Moreover, the “binding of NUP153-expressing phage to immobilized compound” value on NUP153-expressing phage (phage binding assay, versus biotin) is recorded as “specifically bound to OMe-Syn”. Also, the “phage competition: binding of phage to immobilized OMe-Syn after pre-incubation” value at NUP153-expressing phage (pre-incubation with OMe-Syn 50, 100 μM for 1 hour) was “blocked the binding of the phage to immobilized OMe-Syn in a dose-dependent manner”. Further, in data set [3], the “inhibition of VEGF-induced angiogenesis” value is “inhibit vascular endothelial growth factor (VEGF)-induced angiogenesis in vitro and in vivo”. The “number of vascular lumens (retinal neovascularization)” value in data set [4] was “effectively reduced number of vascular lumens”.
